Experimental data taken from patent US9701670B2, “Pyrazolyl-ureas as kinase inhibitors” (RESPIVERT LIMITED, priority 2013, dated 2017).

Experiments:
[1] = target: p38 MAPKα isoform (MAPK14) (Homo sapiens (Human), UniProt Q16539); test: p38 MAPKα enzyme inhibition (FRET, Z-LYTE), Method 1; format: biochemical; details: Method 1 (Table 4a1)
[2] = system: Differentiated U937 cells; test: (l) Cell viability: MTT assay; format: cell-based, human; details: 1 μg/mL
Method in brief: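 MTT read-out (1 h, absorbance 550 nm) on d-U937 cells after pre-incubation with 1 or 10 μg/mL compound under two regimes: 4 h, 5% FCS, or 24 h, 10% FCS RPMI1640. Values are percent loss of viability relative to vehicle (0.5% DMSO), so increases are reported as negative.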

p38 MAPKα isoform (MAPK14), sequence (Q16539 whole entry, canonical isoform): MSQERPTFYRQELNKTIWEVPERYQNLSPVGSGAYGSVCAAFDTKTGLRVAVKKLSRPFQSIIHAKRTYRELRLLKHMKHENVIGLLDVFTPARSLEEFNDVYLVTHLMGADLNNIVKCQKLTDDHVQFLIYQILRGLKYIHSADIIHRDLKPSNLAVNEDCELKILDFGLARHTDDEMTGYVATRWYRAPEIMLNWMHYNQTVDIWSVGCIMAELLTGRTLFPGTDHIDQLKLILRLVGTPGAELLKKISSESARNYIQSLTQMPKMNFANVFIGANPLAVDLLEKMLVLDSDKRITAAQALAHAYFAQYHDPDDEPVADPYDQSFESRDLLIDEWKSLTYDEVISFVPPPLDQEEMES

Row | Structure (SMILES) | IC50 [1] | Cell viability at time point in d-U937 cells 4 h [2] | Cell viability at time point in d-U937 cells 24 h [2]
1 | Cc1ccc(-n2nc(C(C)C)cc2NC(=O)Nc2ccc(Oc3ccnc(Nc4cc(C)cc(C(=O)NCCN5CCOCC5)c4)n3)c3ccccc23)cc1 [Example 44, 3-((4-((4-(3-(3-isopropyl-1-(p-tolyl)-1H-pyrazol-5-yl)ureido)naphthalen-1-yl)oxy)pyrimidin-2-yl)amino)-5-methyl-N-(2-morpholinoethyl)benzamide] | < 1 nM | −ve (−ve and +ve indicate that the value is below and above respectively, the no significant effect threshold, defined as 30% inhibition at 1 μg/mL at the time point indicated.) | −ve (−ve and +ve indicate that the value is below and above respectively, the no significant effect threshold, defined as 30% inhibition at 1 μg/mL at the time point indicated.)
2 | COc1ccc(-n2nc(C(C)C)cc2NC(=O)Nc2ccc(Oc3ccnc(Nc4cc(C(=O)NCCN5CCOCC5)cc(C(F)(F)F)c4)n3)c3ccccc23)cc1 [Example 47] | 10 nM | −ve (−ve and +ve indicate that the value is below and above respectively, the no significant effect threshold, defined as 30% inhibition at 1 μg/mL at the time point indicated.) | −ve (−ve and +ve indicate that the value is below and above respectively, the no significant effect threshold, defined as 30% inhibition at 1 μg/mL at the time point indicated.)
3 | COc1cc(Nc2nccc(Oc3ccc(NC(=O)Nc4cc(C(F)(F)F)nn4-c4ccc(C)cc4)c4ccccc34)n2)cc(C(=O)NCCN2CCOCC2)c1 [Example 48, 3-methoxy-N-(2-morpholinoethyl)-5-((4-((4-(3-(1-(p-tolyl)-3-(trifluoromethyl)-1H-pyrazol-5-yl)ureido)naphthalen-1-yl)oxy)pyrimidin-2-yl)amino)benzamide] | 18 nM | −ve (−ve and +ve indicate that the value is below and above respectively, the no significant effect threshold, defined as 30% inhibition at 1 μg/mL at the time point indicated.) | −ve (−ve and +ve indicate that the value is below and above respectively, the no significant effect threshold, defined as 30% inhibition at 1 μg/mL at the time point indicated.)
4 | COc1cc(Nc2nccc(Oc3ccc(NC(=O)Nc4cc(C5(C)CC5)nn4-c4ccc(C)cc4)c4ccccc34)n2)cc(C(=O)NCCN2CCOCC2)c1 [Example 51, 3-methoxy-5-((4-((4-(3-(3-(1-methylcyclopropyl)-1-(p-tolyl)-1H-pyrazol-5-yl)ureido)naphthalen-1-yl)oxy)pyrimidin-2-yl)amino)-N-(2-morpholinoethyl)benzamide] | 15 nM | −ve (−ve and +ve indicate that the value is below and above respectively, the no significant effect threshold, defined as 30% inhibition at 1 μg/mL at the time point indicated.) | −ve (−ve and +ve indicate that the value is below and above respectively, the no significant effect threshold, defined as 30% inhibition at 1 μg/mL at the time point indicated.)
5 | COc1cc(Nc2nccc(Oc3ccc(NC(=O)Nc4cc(C(C)(C)C)nn4-c4ccc(C)cc4)c4ccccc34)n2)cc(C(=O)NCCN2CCOCC2)c1 [Example 52, 3-((4-((4-(3-(3-(tert-butyl)-1-(p-tolyl)-1H-pyrazol-5-yl)ureido)naphthalen-1-yl)oxy)pyrimidin-2-yl)amino)-5-methoxy-N-(2-morpholinoethyl)benzamide] | 13 nM | −ve (−ve and +ve indicate that the value is below and above respectively, the no significant effect threshold, defined as 30% inhibition at 1 μg/mL at the time point indicated.) | −ve (−ve and +ve indicate that the value is below and above respectively, the no significant effect threshold, defined as 30% inhibition at 1 μg/mL at the time point indicated.)
6 | COc1ccc(-n2nc(C(C)(C)C)cc2NC(=O)Nc2ccc(Oc3ccnc(Nc4cc(OC)cc(C(=O)NCCN5CCOCC5)c4)n3)c3ccccc23)cc1 [Example 54, 3-((4-((4-(3-(3-(tert-butyl)-1-(4-methoxyphenyl)-1H-pyrazol-5-yl)ureido)naphthalen-1-yl)oxy)pyrimidin-2-yl)amino)-5-methoxy-N-(2-morpholinoethyl)benzamide] | 12 nM | −ve (−ve and +ve indicate that the value is below and above respectively, the no significant effect threshold, defined as 30% inhibition at 1 μg/mL at the time point indicated.) | −ve (−ve and +ve indicate that the value is below and above respectively, the no significant effect threshold, defined as 30% inhibition at 1 μg/mL at the time point indicated.)
7 | COCCOc1cccc(-n2nc(C(C)(C)C)cc2NC(=O)Nc2ccc(Oc3ccnc(Nc4cc(OC)cc(C(=O)NCCN5CCOCC5)c4)n3)c3ccccc23)c1 [Example 55, 3-((4-((4-(3-(3-(tert-butyl)-1-(3-(2-methoxyethoxy)phenyl)-1H-pyrazol-5-yl)ureido)naphthalen-1-yl)oxy)pyrimidin-2-yl)amino)-5-methoxy-N-(2-morpholinoethyl)benzamide] | 9 nM | −ve (−ve and +ve indicate that the value is below and above respectively, the no significant effect threshold, defined as 30% inhibition at 1 μg/mL at the time point indicated.) | −ve (−ve and +ve indicate that the value is below and above respectively, the no significant effect threshold, defined as 30% inhibition at 1 μg/mL at the time point indicated.)
8 | COc1cc(Nc2nccc(Oc3ccc(NC(=O)Nc4cc(C(C)C)nn4-c4ccc(C)c(C)c4)c4ccccc34)n2)cc(C(=O)NCCN2CCOCC2)c1 [Example 56, 3-((4-((4-(3-(1-(3,4-dimethylphenyl)-3-isopropyl-1H-pyrazol-5-yl)ureido)naphthalen-1-yl)oxy)pyrimidin-2-yl)amino)-5-methoxy-N-(2-morpholinoethyl)benzamide] | < 1 nM | −ve (−ve and +ve indicate that the value is below and above respectively, the no significant effect threshold, defined as 30% inhibition at 1 μg/mL at the time point indicated.) | −ve (−ve and +ve indicate that the value is below and above respectively, the no significant effect threshold, defined as 30% inhibition at 1 μg/mL at the time point indicated.)
9 | COc1ccc(-n2nc(C3CCCO3)cc2NC(=O)Nc2ccc(Oc3ccnc(Nc4cc(OC)cc(C(=O)NCCN5CCOCC5)c4)n3)c3ccccc23)cc1 (stereo not drawn) [Example 58, 3-methoxy-5-((4-((4-(3-(1-(4-methoxyphenyl)-3-(tetrahydrofuran-2-yl)-1H-pyrazol-5-yl)ureido)naphthalen-1-yl)oxy)pyrimidin-2-yl)amino)-N-(2-morpholinoethyl)benzamide] | < 1 nM | −ve (−ve and +ve indicate that the value is below and above respectively, the no significant effect threshold, defined as 30% inhibition at 1 μg/mL at the time point indicated.) | −ve (−ve and +ve indicate that the value is below and above respectively, the no significant effect threshold, defined as 30% inhibition at 1 μg/mL at the time point indicated.)
10 | COc1ccc(-n2nc(C3CCOC3)cc2NC(=O)Nc2ccc(Oc3ccnc(Nc4cc(OC)cc(C(=O)NCCN5CCOCC5)c4)n3)c3ccccc23)cc1 (stereo not drawn) [Example 59, 3-methoxy-5-((4-((4-(3-(1-(4-methoxyphenyl)-3-(tetrahydrofuran-3-yl)-1H-pyrazol-5-yl)ureido)naphthalen-1-yl)oxy)pyrimidin-2-yl)amino)-N-(2-morpholinoethyl)benzamide] | 2 nM | −ve (−ve and +ve indicate that the value is below and above respectively, the no significant effect threshold, defined as 30% inhibition at 1 μg/mL at the time point indicated.) | −ve (−ve and +ve indicate that the value is below and above respectively, the no significant effect threshold, defined as 30% inhibition at 1 μg/mL at the time point indicated.)
11 | Cc1ccc(-n2nc(C(C)C)cc2NC(=O)Nc2ccc(Oc3ccnc(Nc4cc(Cl)cc(C(=O)NCCN5CCOCC5)c4)n3)c3ccccc23)cc1 [Example 60, 3-chloro-5-((4-((4-(3-(3-isopropyl-1-(p-tolyl)-1H-pyrazol-5-yl)ureido)naphthalen-1-yl)oxy)pyrimidin-2-yl)amino)-N-(2-morpholinoethyl)benzamide] | 16 nM | −ve (−ve and +ve indicate that the value is below and above respectively, the no significant effect threshold, defined as 30% inhibition at 1 μg/mL at the time point indicated.) | −ve (−ve and +ve indicate that the value is below and above respectively, the no significant effect threshold, defined as 30% inhibition at 1 μg/mL at the time point indicated.)
12 | COc1ccc(-n2nc(C(C)C)cc2NC(=O)Nc2ccc(Oc3ccnc(Nc4cc(Cl)cc(C(=O)NCCN5CCOCC5)c4)n3)c3ccccc23)cc1 [Example 61, 3-chloro-5-((4-((4-(3-(3-isopropyl-1-(4-methoxyphenyl)-1H-pyrazol-5-yl)ureido)naphthalen-1-yl)oxy)pyrimidin-2-yl)amino)-N-(2-morpholinoethyl)benzamide] | 20 nM | −ve (−ve and +ve indicate that the value is below and above respectively, the no significant effect threshold, defined as 30% inhibition at 1 μg/mL at the time point indicated.) | −ve (−ve and +ve indicate that the value is below and above respectively, the no significant effect threshold, defined as 30% inhibition at 1 μg/mL at the time point indicated.)
